{"source": "patent US20180153830A1", "about": "“SELECTIVE INHIBITORS OF UNDIFFERENTIATED CELLS” (Yissum Research Development Company of the Hebrew …, priority 2012, published 2018)", "key": {"[1]": {"tested_on": "caspase-3 in embryonic stem cells", "test": "Immunoblotting for caspase-3", "assay_type": "cell-based, human", "conditions": "20 μM", "experimental": "For immunoblotting, 10% polyacrylamide gel was used for protein separation and detection. The gel was transferred to a nitrocellulose membrane and antibody hybridization and chemiluminescence were performed according to standard procedures. The primary antibodies in this analysis were rabbit anti-phosphorylated-eIF2a (1:250, Cell Signaling Technology), rabbit anti caspase-3 (1:1,000, Cell Signaling Technology), mouse anti β-catenin (1:10,000, BD Biosciences) and mouse anti-α-tubulin (1:50,000, Sigma-Aldrich). Horseradish peroxidase-conjugated anti-rabbit and anti-mouse secondary antibodies were obtained from Jackson Immunoresearch Laboratories.\nThe finding of gene expression associated with apoptosis is consistent with previous reports that pluripotent cells are prone to apoptosis [Qin et al., Journal of Biological Chemistry 282:5842-5852 (2007); Momcilovic et al., PloS One 5:e13410 (2010)]. However, pluripotent cells have also been reported to be susceptible to other types of cell death, such as oncosis [Tan et al., Stem Cells 27:1792-1801 (2009)] and autophagy [Alexander et al., PNAS 108:15828-15833 (2011)]. An Annexin V-FITC detection assay and immunoblotting for caspase-3 (a hallmark executioner of apoptosis) were therefore used in order to confirm that the massive hPSC death induced by PluriSIn #1 is indeed apoptosis."}, "[2]": {"tested_on": "pluripotent cells in mixed cell population (differentiated and undifferentiated CSES2-SO2/3 cells)", "test": "FACS analysis of TRA-1-60 in mixed cell populations", "assay_type": "cell-based, human", "conditions": "48 hours, 6-well plates", "experimental": "For quantification of remaining undifferentiated cells after treatment, cells were treated with 20 μM PluriSIn #1 (isonicotinic acid N′-phenylhydrazide) for 48 hours or 72 hours, dissociated using TrypLE™ Select (Invitrogen), and washed with PBS supplemented with 10% FBS and 0.05% sodium azide. Dissociated cells were suspended to a final concentration of 10^6 cells/ml. Cells were incubated on ice with TRA1-60-PE antibody (1:40, BD Biosciences), washed and analyzed using LSR II FACS (BD Biosciences) with FCS Express software (De Novo Software, Los Angeles, Calif.).\n(§1) Mixed cell populations were cultured in 6-well plates and exposed to PluriSIn #1 for 48 hours. The cells were then analyzed by FACS analysis, using staining for the pluripotent marker TRA-1-60, and by fluorescence microscopy imaging of OCT4, as described in the Materials and Methods section."}, "[3]": {"tested_on": "OCT4-expressing CSES2-SO2/3 cells", "test": "Fluorescence microscopy imaging of OCT4 in mixed cell populations", "assay_type": "cell-based, human", "conditions": "48 hours, mixed cell population", "experimental": "High content imaging of CSES2-SO2/3 fluorescent cells (mCherry+ or EGFP+) was performed in black clear-bottom 384-well assay plates (Falcon BD), using the Opera high-content screen imaging platform (PerkinElmer). Otherwise, light and fluorescence imaging of all cells was performed in 24-well, 6-well or 10 cm CELLSTAR® plates (Greiner Bio-One), using an Olympus CellR imaging station. Light imaging of developing mouse embryos was performed in 35 mm culture dishes (Falcon BD), using an Olympus IX70 microscope.\nas §1"}, "SCD1": {"target": "T1, SCD1 (Homo sapiens, UniProt O00767)", "T1 sequence (O00767 1-359)": "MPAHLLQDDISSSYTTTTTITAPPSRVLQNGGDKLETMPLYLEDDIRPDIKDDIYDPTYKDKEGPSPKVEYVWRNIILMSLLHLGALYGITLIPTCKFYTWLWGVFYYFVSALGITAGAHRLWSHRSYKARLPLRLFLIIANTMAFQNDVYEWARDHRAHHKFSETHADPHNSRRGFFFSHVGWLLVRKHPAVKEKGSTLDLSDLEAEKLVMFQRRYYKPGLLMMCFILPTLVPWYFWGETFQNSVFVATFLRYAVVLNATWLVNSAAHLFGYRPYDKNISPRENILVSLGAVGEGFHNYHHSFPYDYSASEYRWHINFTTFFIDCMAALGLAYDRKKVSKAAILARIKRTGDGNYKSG", "test": "SCD1 activity measurement ([1-14C] stearic acid pulse-chase labeling)", "assay_type": "cell-based", "parameters": "PluriSIn #1 decreased SCD1 activity by approximately 65% decrease in ES cells; endogenous in cells; host or cells: human embryonic stem cells (H9, printed '1-19')", "conditions": "20 μM, 12 hours", "experimental": "Cells were plated in 6-well plates at a density of 50,000 to 100,000 cells per well. 24 hours later, 20 μM of PluriSIn #1 (isonicotinic acid N′-phenylhydrazide) or 0.2% DMSO (control) were added to the cells. After 12 hours of incubation at 37° C., under 5% CO2, the old medium was removed, cells were washed with PBS, and new medium containing 2.3 μM of 0.75 μCi of [1-^14C] stearic acid was added. The cells were then incubated for up to 4 hours at 37° C., under 5% CO2.\nAfter the incubation period, the medium was discarded and the cells were washed 3 times with 2 ml of PBS. 2 ml of an n-hexane:isopropanol mixture (3:2 v:v) were added, and the cells were then incubated for 30 minutes at a temperature of 37° C., under 5% CO2. […] The free fatty acids were detected by ultraviolet illumination after spraying the TLC with a 2′,7′-dichlorofluorescein solution. The spots corresponding to stearic and oleic acid were scraped and the radioactivity counted in a Packard Tri-Carb® 1600TR scintillating counter. SCD1 desaturase activity was calculated from the percent conversion of substrate to product and the conversion to picomoles per minute per 10^6 cells. […]\nIn order to directly examine whether PluriSin #1 inhibits SCD activity, and whether this inhibition is restricted to pluripotent cells, SCD1 activity was measured by a pulse-chase labeling assay, as described in the Materials and Methods section. […]"}}}
{"compound": "O=C(NNc1ccccc1)c1ccncc1", "note": "[PluriSIn #1, isonicotinic acid N′-phenylhydrazide]", "values": [{"measurement": "activation of caspase-3", "setting": "[1]", "value": "enhanced activation of caspase-3"}, {"measurement": "pluripotent cells eliminated from culture (TRA-1-60 FACS)", "setting": "[2]", "value": "over 99%"}, {"measurement": "elimination of OCT4-expressing cells", "setting": "[3]", "value": "eliminated almost all OCT4-expressing cells"}, {"measurement": "decrease in SCD1 activity in ES cells", "setting": "SCD1", "value": "approximately 65%"}]}
